From US9079854B2 (priority 2007, dated 2015) come the findings set out here.

Read-outs that look alike come from different tables or passages of the source.

Experiment [1] concerns the target T1, human CB1 (hCB1) receptor (Homo sapiens, UniProt P21554).
T1 construct: expressed in transfected cells; host or cells: CHO (Chinese hamster ovary) cells, membranes
The experiment in a line: CB1 binding assay, competitive binding of [3H]CP 55940. The settings on record: for % of Control Specific Binding 1st: 1st determination; for % of Control Specific Binding 2nd: 2nd determination; for inhibition at 10 µM / inhibition at 1 µM: specific binding of [3H]-CP55940; for inhibition at 1 µM: CHO membranes. Also on record: % Inhibition of Control Specific Binding CB1: concentration or dose not given beside the values. The method, then:
Cell membrane homogenates (25 μg protein) are incubated for 120 min at 37° C. with 0.5 nM [^3H]CP 55940 (the reference standard [Rinaldi-Carmona, 1996 #1320]) in the absence or presence of the test compound in a buffer containing 50 mM Tris HCl (pH 7.4), 5 mM MgCl2, 2.5 mM EDTA, and 0.3% bovine serum albumin (BSA). […]
(§1) […] [^3H]-CP55940 at a concentration of 0.5 nM and [^3H]-WIN55212 at a concentration of 0.8 nM were used as radioligands for hCB1 and hCB2 assays, respectively. The results are expressed as a percent inhibition of control specific binding. Compounds which displaced the radioligand by more than 50% for either hCB1 or hCB2 receptors were arbitrary chosen for functional activity determination.

Experiment [2] concerns the target T2, human CB2 (hCB2) receptor (Homo sapiens, UniProt P34972).
T2 construct: expressed in transfected cells; host or cells: CHO (Chinese hamster ovary) cells, membranes
The experiment in a line: CB2 binding assay, competitive binding of [3H]WIN 55212-2. The conditions noted are these: for % Inhibition of Control Specific Binding / % of Control Specific Binding 1st / % of Control Specific Binding 2nd / % of Control Specific Binding Mean: CB2, Test Concentration 1.0E−05 (MD); for % of Control Specific Binding 1st: 1st determination; for % of Control Specific Binding 2nd: 2nd determination; for % Inhibition of Control Specific Binding CB2: Table 4, concentration not given; for inhibition at 10 µM: read-out: % inhibition hCB2 receptor, at 10 μM; for inhibition at 10 µM / inhibition at 1 µM: specific binding of [3H]-WIN55212-2; for inhibition at 1 µM: read-out: % inhibition hCB2 receptor, at 1 μM, CHO membranes. The method, then: Cell membrane homogenates (15 μg protein) are incubated for 120 min at 37° C. with 0.8 nM [^3H]WIN 55212-2 (the reference standard [Munro, 1993 #1321]) in the absence or presence of the test compound in a buffer containing 50 mM HEPES/Tris HCL (pH 7.4), 5 mM MgCl2, 2.5 mM EGTA, and 0.1% BSA. Nonspecific binding is determined in the presence of 10 μM WIN 55212-2. After being incubated, the samples are filtered rapidly under vacuum through glass fiber filters (GF/B; Packard) presoaked with 0.3% PEI and rinsed several times with ice-cold buffer containing 50 mM Tris HCl (pH 7.4) and 0.5% BSA using a 96-sample cell harvester (Unifilter; Packard). The filters are dried then counted for radioactivity in a scintillation counter (Topcount; Packard) using a scintillation cocktail (Microscint 0; Packard). The results are expressed as a percentage of the inhibition of the control radioligand-specific binding. The reference standard compounds are tested in each experiment at several concentrations to obtain a competition curve from which its IC50 is calculated.
as §1

A further experiment addresses T3, hCB2 receptor (Homo sapiens, UniProt P34972).
T3 construct: purchased ES-111-MG; host or cells: CHO membrane extracts
As to the kind of experiment: CB2 functional assay, [35S]GTP-γ-S binding. The class given is biochemical. The method, then:
(§2) A dose response curve was generated at eight concentrations in duplicate on CB1 and CB2 in light of reference agonists.
(§3) Membranes (CB1, ES-110-MG or CB2, ES-111-MG) are mixed with GDP (volume:volume) and incubated for at least […] on ice. In parallel, […] are mixed with the beads (volume:volume) just before starting the reaction. The following reagents are successively added in the wells of an Optiplate: 50 μl of ligand, 20 μl of the membranes:GDP mix, 10 μl of assay buffer for agonist testing and 20 μl of the […]: beads mix. The plates are covered with a topseal, shaken on an orbital shaker for 2 min, and then incubated between 30 to 60 min at room temperature. Then the plates are centrifuged for 10 min at 2000 rpm, incubated at room temperature between 1 to 4 hours and counted for 1 min with a PerkinElmer TopCount reader.
(§4) Functional activity for acyl hydrazone was evaluated using [^35S]GTP-γ-S assay in CHO membrane extracts expressing recombinant hCB1 receptor or hCB2 receptor. The assay relies on the binding of [^35S]GTP-γ-S, a radiolabeled nonhydrolyzable GTP analogue, to the G protein upon binding of an agonist of the G-protein-coupled receptor. In this system, agonists stimulate [^35S]GTP-γ-S binding whereas neutral antagonist have no effect and inverse agonists decrease [^35S]GTP-γ-S basal binding.
(§5) CB1 and CB2 assay data are presented as the mean of two determinations. […] For replicate determinations, the maximum variability tolerated in the test was of ±20% around the average of the replicates.
(GTPγS resists hydrolysis and so accumulates on activated G proteins.)

Another experiment has as its target CB1 (Homo sapiens, UniProt P21554). As to the kind of experiment: CB1 functional assay, [35S]GTP-γ-S binding. The class given is biochemical. Also on record: purchased ES-110-MG; host or cells: CHO membrane extracts. The method, then: as §2, §3, §4, §5
Setting [3] is: CB1, Test Concentration 1.0E−05 (MD).
Setting [4] is: CB2 Functional Activity, read-out: EC50 (nM) for GTP Binding.
The mark [5] stands for this setting: Table 7, mean of two determinations, read-out: [35S]GTP-γ-S (hCB2) EC50 (nM ± SEM).
The mark [6] stands for this setting: Table 7, relative to the efficacy of CP55940.
[7] abbreviates: Table 7, mean of two determinations, read-out: [35S]GTP-γ-S (hCB1) EC50 (nM ± SEM).
Where [8] appears, read: Table 9, relative to the efficacy of CP 55,940.

T1 sequence (P21554 whole entry): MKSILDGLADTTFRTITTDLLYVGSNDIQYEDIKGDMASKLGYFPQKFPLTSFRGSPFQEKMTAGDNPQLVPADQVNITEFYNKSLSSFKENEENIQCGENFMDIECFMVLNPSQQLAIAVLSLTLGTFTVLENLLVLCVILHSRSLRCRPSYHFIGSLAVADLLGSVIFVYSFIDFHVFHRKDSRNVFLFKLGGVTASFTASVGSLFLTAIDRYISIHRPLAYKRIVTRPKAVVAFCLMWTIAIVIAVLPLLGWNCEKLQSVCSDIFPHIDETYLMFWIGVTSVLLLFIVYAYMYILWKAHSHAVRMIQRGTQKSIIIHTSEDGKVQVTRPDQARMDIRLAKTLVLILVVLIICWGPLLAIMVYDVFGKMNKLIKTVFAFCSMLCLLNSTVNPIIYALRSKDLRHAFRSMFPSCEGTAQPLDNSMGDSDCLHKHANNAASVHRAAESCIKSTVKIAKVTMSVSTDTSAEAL
Sequence of CB1 (P21554 whole entry): as above
T3 sequence (P34972 whole entry): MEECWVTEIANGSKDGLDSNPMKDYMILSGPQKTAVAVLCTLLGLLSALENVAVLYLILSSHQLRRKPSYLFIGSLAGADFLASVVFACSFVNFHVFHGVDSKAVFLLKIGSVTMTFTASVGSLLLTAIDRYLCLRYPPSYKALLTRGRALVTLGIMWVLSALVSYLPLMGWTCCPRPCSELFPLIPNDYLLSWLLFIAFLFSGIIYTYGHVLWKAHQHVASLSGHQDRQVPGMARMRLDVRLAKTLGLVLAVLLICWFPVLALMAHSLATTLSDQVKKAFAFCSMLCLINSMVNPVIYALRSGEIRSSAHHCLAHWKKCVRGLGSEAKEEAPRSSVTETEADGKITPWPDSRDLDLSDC
T2 sequence (P34972 whole entry): as above

In the case of `CCCCCCN1C(=O)/C(=N\NC(=O)Cc2ccccc2)c2ccccc21` [Example 7, Phenylacetic acid [1-n-hexyl-2-oxo-1,2-dihydro-indol-3-ylidene]-hydrazide], the “% Inhibition of Control Specific Binding” value in experiment [1] (setting [3]) stood at 98%; in experiment [2] it was 92%. Moreover, the “% of Control Specific Binding 1st” value in experiment [1] (setting [3]) came to 0.9%; in experiment [2] it was 8.4%. Besides, the “% of Control Specific Binding 2nd” value in experiment [1] (setting [3]) came to 2.6%; in experiment [2], 8.5%. For the same compound, the “% of Control Specific Binding Mean” value in experiment [1] (setting [3]) is 1.8%; in experiment [2] it was 8.5%. Further, in experiment [1] (Table 3, concentration not given), the “% Inhibition of Control Specific Binding CB1” value came out at 98%. Further, the values for the inhibition at 10 µM in experiment [1] and in experiment [2] were 98.2 ± 0.8% and 91.5 ± 0.1%, respectively. Further, the “% Inhibition of Control Specific Binding CB2” value in experiment [2] is given as 92%. In addition, the figures for the “% Activation Average” value at hCB2 receptor (CB2 Functional Activity) and at CB1 (CB1 Functional Activity) were 45.79% and 71.88%, respectively. The “Compound Activity” value on hCB2 receptor (CB2 Functional Activity) and on CB1 (CB1 Functional Activity) was “Agonist” throughout. For the same compound, the half-maximal effective concentration (EC50) at hCB2 receptor (setting [4]) amounted to 189 nM; on hCB2 receptor (setting [5]), 188.7 ± 1.3 nM; at CB1 (CB1 Functional Activity, read-out: EC50 (nM) for GTP Binding), 459 nM; at CB1 (setting [7]) it was 459 ± 1.1 nM. Moreover, the Emax at hCB2 receptor (setting [6]) was found to be 45.8%; at CB1 (setting [6]), 71.9%.
For `O=C(N/N=C1\C(=O)N(CCC2CCCCC2)c2ccccc21)c1ccccc1` [Example 5, Benzoic acid [1-(2-cyclohexyl-ethyl)-2-oxo-1,2-dihydro-indol-3-ylidene]-hydrazide], in experiment [1] (setting [3]), the “% of Control Specific Binding 1st” value was determined as 0.4%, the “% of Control Specific Binding 2nd” value stood at 7.7% and the “% of Control Specific Binding Mean” value amounted to 4%. In experiment [1], this compound had an inhibition at 10 µM of 96 ± 3.7%. Besides, in experiment [2], the “% Inhibition of Control Specific Binding” value stood at 80%, the “% of Control Specific Binding 1st” value is recorded as 13.9%, the “% of Control Specific Binding 2nd” value was 26.4% and the “% of Control Specific Binding Mean” value stood at 20.2%. In addition, in experiment [2], the “% Inhibition of Control Specific Binding CB2” value was determined as 80% and the inhibition at 10 µM was 79.8 ± 6.3%. Besides, on hCB2 receptor (CB2 Functional Activity), the “% Activation Average” value is given as 55.55% and the “Compound Activity” value is listed as “Agonist”. In addition, the EC50 at hCB2 receptor (setting [4]) turned out to be 103 nM. For the same compound, the concentration giving a half-maximal response (EC50) at hCB2 receptor (setting [5]) came to 103 ± 1.6 nM. At hCB2 receptor (setting [6]), the Emax was 55.6%. For the same compound, on CB1 (CB1 Functional Activity), the “% Activation Average” value is given as 56.75% and the “Compound Activity” value is “Agonist”. The compound further had an Emax at CB1 (setting [6]) of 56.8%.
On to `CCCCCCN1C(=O)/C(=N/NC(=O)OC(C)(C)C)c2ccccc21` [Example 15, tert-butyl (2E)-2-(1-hexyl-2-oxo-1,2-dihydro-3H-indol-3-ylidene)hydrazinecarboxylate], for which the inhibition at 1 µM in experiment [1] was 75 ± 0.1%; in experiment [2], 27 ± 3.7%. Also, at hCB2 receptor ([35S]GTP-γ-S), the “functional activity on CB2 receptor (in words)” value is on record as “failed to exhibited functional activity”. Besides, the Emax at 3 µM at hCB2 receptor (read-out: [35S]GTP-γ-S hCB2 Emax (%), Table 9 footnote a: Efficacy determined at 3 μM, relative to CP 55,940) turned out to be 23.4%. For the same compound, the “functional activity on CB1 receptor (in words)” value on CB1 ([35S]GTP-γ-S) is “failed to exhibited functional activity”.
Take `CCCCCCN1C(=O)/C(=N\NC(=O)OC(C)(C)C)c2ccccc21` [Example 14, tert-butyl (2Z)-2-(1-hexyl-2-oxo-1,2-dihydro-3H-indol-3-ylidene)hydrazinecarboxylate]: the values for the inhibition at 1 µM in experiment [1] and in experiment [2] were 85.1 ± 3.3% and 82.3 ± 0.8%, respectively. Besides, the EC50 stood at 22.4 ± 1.3 nM on hCB2 receptor (Table 9, mean of two determinations, read-out: [35S]GTP-γ-S hCB2 EC50 (nM ± SEM)) and 937.1 ± 1.2 nM at CB1 (Table 9, mean of two determinations, read-out: [35S]GTP-γ-S hCB1 EC50 (nM ± SEM)). The maximal effect (Emax) on hCB2 receptor (setting [8]) turned out to be 43.4%; on CB1 (setting [8]), 92%.
For `O=C(Cc1ccccc1)N/N=C1\C(=O)N(CCC2CCCCC2)c2ccccc21` [Example 10, N′-[1-(2-cyclohexylethyl)-2-oxo-1,2-dihydro-3H-indol-3-ylidene]-2-phenylacetohydrazide], the inhibition at 10 µM in experiment [1] was 88.8 ± 0.6%; in experiment [2], 47.2 ± 7.7%. Besides, the Emax at hCB2 receptor (setting [6]) was found to be 21%; at CB1 (setting [6]), 75%. Besides, the 50% effective concentration (EC50) on CB1 (setting [7]) was 1238.8 ± 1.2 nM.

By inhibition is commonly meant the percentage by which the read-out fell short of the control. The term EC50 denotes the concentration needed to bring the measured effect to its halfway point. By Emax is commonly meant the greatest response seen or fitted, relative to the assay's reference.
